Some test systems named below: DMS-273; HT-29; KM-20L2; 786-0; SK-MEL-5; UACC-257; Malme-3M; CAKI-1; OVCAR-4; DLD-1; HL-60; EKVX; OVCAR-3; U-251; SNB-75; M14; RPMI-8226; HCC 2998; Hs-578T; MDA-MB-231.
Holding throughout (assay): NCI tumour cell line growth inhibition, 48 h

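Cells were grown in 96-well plates and exposed to each compound for 48 hours at five concentrations; endpoints were interpolated linearly between bracketing concentrations, or set to the highest concentration if not reached. At the GI50, growth is halved.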 Active and inactive are the calls of the source. Rule as the data show it: active = GI50 up to about 1.1 µM and inactive = higher.

On to `CCN(CC)c1c(C(=O)/C=C/c2ccccc2)c(-c2ccccc2)nn(C)c1=O`, for which the GI50 with DMS-273 was 4.98 µM (inactive); in the assay on HT-29, 5.48 µM (inactive); in the assay on KM-20L2 it was 5.06 µM (inactive); with 786-0, 7.31 µM (inactive); in the assay with SK-MEL-5, 5.02 µM (inactive); in the assay on UACC-257, 8.17 µM (inactive). For the same molecule, the GI50 with Malme-3M is 2.8 µM (inactive); in the assay on CAKI-1, > 100 µM (inactive); in the assay with OVCAR-4 it was 4.78 µM (inactive); in the assay with DLD-1 it was 3.27 µM (inactive); in the assay on HL-60, 4.22 µM (inactive); with EKVX, 8.3 µM (inactive).

Regarding `O=C1NC2C(O)CCCCC2C12CCCCC2` (centres undefined), the GI50 in the assay with DMS-273, in the assay with HT-29, with OVCAR-3, with 786-0, in the assay on SK-MEL-5 and in the assay on UACC-257 was > 100 µM (inactive) in each case. Besides, the GI50 with Malme-3M, in the assay with CAKI-1, in the assay on U-251, with OVCAR-4, in the assay on DLD-1 and in the assay with HL-60 was > 100 µM (inactive) each time. In addition, the GI50 with SNB-75, in the assay with M14, in the assay with EKVX and in the assay on RPMI-8226 was > 100 µM (inactive) each time.

Take `CN1C[C@@H]2CC(=O)CC[C@@H]2C[C@H]1C#N`: the GI50 in the assay on HT-29, in the assay on KM-20L2, in the assay on OVCAR-3, with 786-0, in the assay with SK-MEL-5 and in the assay with UACC-257 was > 100 µM (inactive) in each case. For the same molecule, the GI50 in the assay on Malme-3M, in the assay with HCC 2998, in the assay on CAKI-1, with OVCAR-4, in the assay with DLD-1 and in the assay with HL-60 was > 100 µM (inactive) throughout. Further, the GI50 in the assay on SNB-75, in the assay on M14 and in the assay on RPMI-8226 was > 100 µM (inactive) throughout.

With `C[C@]12Cc3cn[nH]c3C(=O)C1CC[C@@H]1C2CC[C@@]2(C)C1CC[C@@H]2O` (some centres undefined), the GI50 with DMS-273, with HT-29, in the assay on KM-20L2, in the assay with OVCAR-3, in the assay with 786-0 and with SK-MEL-5 was > 100 µM (inactive) throughout. In addition, the GI50 in the assay with UACC-257, in the assay with Malme-3M, in the assay with CAKI-1, in the assay on U-251, in the assay on OVCAR-4 and in the assay on HL-60 was > 100 µM (inactive) each time. Besides, the GI50 in the assay on SNB-75, with M14, in the assay on EKVX and in the assay on RPMI-8226 was > 100 µM (inactive) in each case.

As to `COC(=O)/N=C(\NC(=O)OC)Nc1ccc(Oc2ccccc2)cc1NC=O`, the GI50 in the assay on HT-29 is 0.348 µM (active); with KM-20L2, 0.242 µM (active); with OVCAR-3, 0.327 µM (active); in the assay with 786-0 it was 0.483 µM (active); in the assay on SK-MEL-5, 0.341 µM (active); in the assay on UACC-257 it was 2.48 µM (inactive). For the same molecule, the GI50 is 0.579 µM (active) in the assay on Malme-3M; 0.968 µM (active) in the assay on HCC 2998; 0.333 µM (active) in the assay on U-251; 0.891 µM (active) with OVCAR-4; 0.536 µM (active) in the assay on DLD-1; 0.206 µM (active) in the assay with HL-60. For the same molecule, the GI50 in the assay on SNB-75 is 0.421 µM (active); with M14 it was 0.401 µM (active); in the assay with EKVX, 89.5 µM (inactive); with RPMI-8226, 2.55 µM (inactive).

Turning to `CC1(C)SCc2nc3ncccc3n21`, the GI50 with HT-29, in the assay on KM-20L2, in the assay with OVCAR-3, with 786-0, with SK-MEL-5 and with UACC-257 was > 100 µM (inactive) throughout. The GI50 with Malme-3M, in the assay on HCC 2998, in the assay with CAKI-1, in the assay with U-251, in the assay with OVCAR-4 and in the assay with DLD-1 was > 100 µM (inactive) throughout. Moreover, the GI50 in the assay on HL-60, in the assay with SNB-75, in the assay on M14, with EKVX and with RPMI-8226 was > 100 µM (inactive) throughout.

For the molecule `CCN(CC)CCNc1ccc2nc(C)n3c4ccc(O)cc4c(=O)c1c23`, the GI50 in the assay on DMS-273 was 0.37 µM (active); with HT-29, 0.246 µM (active); in the assay with OVCAR-3, 1.97 µM (inactive); in the assay with 786-0, 0.381 µM (active); with SK-MEL-5 it was 2.01 µM (inactive); in the assay on UACC-257, 8.63 µM (inactive). The GI50 is 3.56 µM (inactive) in the assay with Malme-3M; 0.552 µM (active) with HCC 2998; 1.24 µM (inactive) in the assay on CAKI-1; 0.745 µM (active) in the assay with U-251; 0.525 µM (active) with OVCAR-4; 0.371 µM (active) with DLD-1. The GI50 with HL-60 is 0.286 µM (active); in the assay with SNB-75 it was 1.09 µM (active); with M14, 2.99 µM (inactive); with RPMI-8226, 2.16 µM (inactive).

Regarding `CC(C)(Oc1ccc(C(=O)c2ccc(Cl)cc2)cc1Cl)C(=O)N1CCN(c2ccccc2)CC1`, the GI50 in the assay with DMS-273 was 55.7 µM (inactive); in the assay with HT-29, > 100 µM (inactive); in the assay with KM-20L2 it was > 100 µM (inactive); in the assay on OVCAR-3, > 100 µM (inactive); in the assay with 786-0, > 100 µM (inactive); in the assay with SK-MEL-5, 72.8 µM (inactive). The GI50 is 43.7 µM (inactive) in the assay with UACC-257; > 100 µM (inactive) in the assay with Malme-3M; > 100 µM (inactive) with U-251; > 100 µM (inactive) with DLD-1; 60.8 µM (inactive) with HL-60; > 100 µM (inactive) in the assay with M14. Also, the GI50 with EKVX and in the assay with RPMI-8226 was > 100 µM (inactive) throughout.

`CC(C)c1cccc(C(C)C)c1NC(=O)/C(Cc1nc2ccc(Cl)cc2nc1O)=N\NC(=O)C[N+](C)(C)C`: the GI50 in the assay on HT-29, in the assay on KM-20L2, in the assay on OVCAR-3, in the assay with 786-0, with SK-MEL-5 and in the assay on UACC-257 was > 100 µM (inactive) each time. Besides, the GI50 is > 100 µM (inactive) in the assay on Malme-3M; > 100 µM (inactive) with HCC 2998; 95.7 µM (inactive) with CAKI-1; > 100 µM (inactive) in the assay with OVCAR-4; > 100 µM (inactive) in the assay with DLD-1; > 100 µM (inactive) in the assay on HL-60. Also, the GI50 with M14 was > 100 µM (inactive); in the assay on EKVX, 4.22 µM (inactive); in the assay on RPMI-8226, > 100 µM (inactive).

`COc1cc(Br)c(/C=N\c2cccc3ccc(OS(=O)(=O)c4cccc([N+](=O)[O-])c4)cc23)cc1OC`: the GI50 is 34.7 µM (inactive) in the assay with HT-29; 32.7 µM (inactive) with OVCAR-3; 25.4 µM (inactive) in the assay with 786-0; 27.4 µM (inactive) with SK-MEL-5; 41.1 µM (inactive) in the assay on UACC-257; 36 µM (inactive) with Malme-3M. In addition, the GI50 is > 100 µM (inactive) in the assay with HCC 2998; 19.1 µM (inactive) in the assay with CAKI-1; 19.1 µM (inactive) with U-251; 28.1 µM (inactive) in the assay on OVCAR-4; 35.5 µM (inactive) with DLD-1; 77.3 µM (inactive) in the assay on EKVX. Also, the GI50 in the assay with RPMI-8226 is 24 µM (inactive).

In the case of `CCc1nc(N)nc(N)c1-c1ccc(Cl)c(N=[N+]=[N-])c1`, the GI50 is 12.1 µM (inactive) with KM-20L2; 13.4 µM (inactive) with OVCAR-3; 3.8 µM (inactive) in the assay with 786-0; 3.74 µM (inactive) in the assay with SK-MEL-5; 8.22 µM (inactive) in the assay on HCC 2998; 5.38 µM (inactive) in the assay on U-251. Moreover, the GI50 was 22.4 µM (inactive) with OVCAR-4; 5.47 µM (inactive) in the assay on DLD-1; 18.8 µM (inactive) with SNB-75; 27.4 µM (inactive) in the assay on Hs-578T; 5.21 µM (inactive) with EKVX; 14.8 µM (inactive) in the assay with MDA-MB-231. For the same molecule, in the assay on RPMI-8226, the GI50 is 12.1 µM (inactive).

With `CCN(CC)CCNc1ccc2nnn3c4ccc(O)cc4c(=O)c1c23`, the GI50 with HT-29 is 3.33 µM (inactive); in the assay with KM-20L2, 4.37 µM (inactive); in the assay on OVCAR-3, 8.02 µM (inactive); with 786-0, 1.24 µM (inactive); in the assay with SK-MEL-5, 1.64 µM (inactive); in the assay with UACC-257, 12.2 µM (inactive). Also, the GI50 with Malme-3M was 4.93 µM (inactive); in the assay with HCC 2998, 1.52 µM (inactive); in the assay with CAKI-1 it was 0.69 µM (active); in the assay with U-251 it was 2.86 µM (inactive); in the assay with OVCAR-4 it was 2.64 µM (inactive); in the assay on DLD-1, 2.09 µM (inactive). In addition, the GI50 is 2.05 µM (inactive) with HL-60; 2.07 µM (inactive) in the assay with SNB-75; 6.65 µM (inactive) in the assay on M14; 10.7 µM (inactive) in the assay with Hs-578T; 6.98 µM (inactive) in the assay on EKVX; 0.0361 µM (active) with MDA-MB-231. In addition, the GI50 in the assay with RPMI-8226 was 2 µM (inactive).

Regarding `O=C1CCC2(c3ccccc3)Nc3ccccc3N12` (centres undefined), the GI50 in the assay on HT-29, with KM-20L2, in the assay on OVCAR-3, in the assay on 786-0, in the assay with SK-MEL-5 and in the assay on UACC-257 was > 100 µM (inactive) throughout. Also, the GI50 in the assay on Malme-3M, in the assay with HCC 2998, in the assay with CAKI-1, with U-251, in the assay on OVCAR-4 and in the assay with DLD-1 was > 100 µM (inactive) each time. Besides, the GI50 with HL-60, with SNB-75, in the assay with M14, with EKVX and with RPMI-8226 was > 100 µM (inactive) each time.
